Tested on: biopsy-derived HSV-2-specific CD4 TRM
Test: single peptide test with biopsy-derived HSV-2-specific CD4 TRM, IFN-γ secretion
Type: cell-based, human
Details: peptide at 1 μg/ml; HLA-expressing cells as antigen presenting cells; media control gave no response
Source text: FIG. 14. CD4 epitopes: peptide pools→singles. For this example, biopsy-derived cells recognize Cos7 co-transfected with the combination of a subject HLA molecule and HSV-2 UL19 gene. A rectangular matrix of peptides covering UL19 was created and row and column pools were made as indicated on the X axis of the top graph. Only one row pool and one column pool gave a positive proliferative response using the assay described in FIG. 13. The peptide at the intersection of the positive row and column pools, UL19 305-319 (SEQ ID NO: 14), was tested at 1 μg/ml using HLA-expressing cells as antigen presenting cells and biopsy-derived HSV-2-specific CD4 TRM as responder cells. The readout was IFN-γ secretion, as shown in the bottom graphs.
The technology used to determine the fine peptide specificity of biopsy-derived CD4 T cells that recognize HSV-2 has been described in Johnston, et al., Journal of Virology 88, 4921-4931 (2014). In brief, every HSV-2 was expressed. […] T cell activation was detected by proliferation or IFN-γ secretion assays. Once the identity of reactive HSV-2 proteins were determined, peptides from within that protein were tested in repeat assays as described in Johnston, et al., Journal of Virology 88, 4921-4931, (2014). In some cases, dose-response assays were conducted as described in Jing, et al., Journal of Immunology 196, 2205-2218, (2016). […]

TYGEMVLNGANLVTA [SEQ ID NO: 14]
IFN-γ response from the biopsy cells: elicited an IFN-γ response

From US20200164060A1, “HERPES SIMPLEX VIRUS VACCINE EPITOPES SP[…] TISSUE RESIDENT MEMORY T CELLS” (priority 2017, published 2020)
